{"source": "patent US20130345163A1", "about": "“BIOLOGICAL MARKER FOR INFLAMMATION” (CAN-FITE BIOPHARMA LTD., priority 2004, published 2013)", "key": {"[1]": {"tested_on": "A3AR", "assay": "A3AR protein expression level by Western blot in tissues of AIA rats", "format": "in vivo, rat", "method": "(§1) Female Lewis rats, aged 8-12 weeks were obtained from Harlan Laboratories (Jerusalem, Israel). Rats were maintained on a standardized pelleted diet and supplied with tap water. Experiments were performed in accordance with the guidelines established by the Institutional Animal Care and Use Committee at Can-Fite BioPharma, Petah Tikva, Israel. The rats were injected subcutaneously (SC) at the tail base with 100 μl of suspension composed of incomplete Freund's adjuvant (IFA) with 10 mg/ml heat killed Mycobacterium tuberculosis, (Mt) H37Ra, (Difco, Detroit, USA). Each group contained 10 animals.\n(§2) Treatment with IB-MECA (10 μg/kg) was initiated on day 14 after vaccination and was orally administered by gavage, twice daily. Another group was treated with Methotrexate (MTX) (1.5 mg/kg) intraperitoneally every 3 days, starting on day 14th after vaccination. The control group in each experiment received vehicle only (DMSO in a dilution corresponding to that of the drugs).\nThe hind paws were dissected above the ankle joint. The bony tissue was broken into pieces, snap frozen in liquid nitrogen and stored at −80° C. until use. To prepare a protein extract, RIPA buffer (containing 150 mM NaCl, 50 mM Tris, 1% NP40, 0.5% Deoxycholate and 0.1% SDS) was added to the paw tissue (4 ml/gr of tissue). The mixture was homogenized on ice with a polytron and centrifuged.\nSynovial tissue was removed and synovial cells were separated by incubating the tissue in RPMI containing 1 mg/ml Collagenase IV and 0.1 mg/ml DNase with a vigorous shaking (200 rpm) at 37° C. for 30 min. The supernatant containing the synovial cells was collected and the undigested tissue was re-extracted. The supernatants from both extractions were combined and cells were washed with PBS. Protein extracts were prepared. […]\nWestern blot analysis (WB) of synovial, paw, spleen and lymph nodes were carried out according to the following protocol. […] Protein concentrations were determined using the Bio-Rad protein assay dye reagent. […] Bands were recorded using BCIP/NBT color development kit (Promega, Madison, Wis., USA)."}, "[2]": {"tested_on": "Adjuvant Induced Arthritis (AIA) rats", "assay": "Adjuvant induced arthritis (AIA) model in rats, clinical disease activity score", "format": "in vivo, rat", "details": "CF101 10 μg/kg orally twice daily from day 14 after immunization, MTX 1.5 mg/kg intraperitoneally every 3 days from day 14, vs vehicle", "method": "as §1, §2\nClinical Disease Activity Score was assessed as follows: the animals were inspected every second day for clinical arthritis. […] The clinical score was calculated by adding the four individual legs' score. The inflammatory intensity was also determined in accordance with the increase in the rat hind paw's diameter, measured by caliper (Mitotoyo, Tokyo, Japan)."}, "[3]": {"tested_on": "A3AR", "assay": "A3AR level in peripheral blood mononuclear cells of RA patients by Western blot", "format": "in vivo, human", "method": "Protein concentrations were determined using the Bio-Rad protein assay dye reagent. Equal amounts of the sample (50 μg) were separated by SDS-PAGE, using 12% polyacrylamide gels. […] Bands were recorded using BCIP/NBT color development kit (Promega, Madison, Wis., USA)."}, "[4]": {"tested_on": "RA patients", "assay": "Clinical study of CF101 in RA patients, ACR response", "format": "in vivo, human", "method": "Blood was withdrawn from RA patients who were enrolled in a clinical study sponsored by Can-Fite BioPharma, in which the effect of CF101, a clinical grade IB-MECA, on arthritic patients was evaluated. The patients randomly received 0.1, 1.0 or 4.0 mg of CF101 twice daily. Blood was withdrawn at 2 time points: (a) after a washout period of 4-6 weeks from a previous treatment and before CF101 treatment was initiated—this was considered as baseline level; (b) after 3 months of treatment with CF101. Peripheral blood mononuclear cells were separated and protein was extracted as described above. In addition, C reactive protein (CRP) values, the number of tender and swollen joints, the physicians global assessment, the patient own assessment, the pain score and the disability score were recorded and the ACR score was calculated for each patient (ACR is a score that is calculated according to criteria established by the American College of Rheumatology, based on the aforementioned measures, to evaluate the effectiveness of drugs for treatment of RA; ACR 20, ACR 50 and ACR 70 respectively represent a 20%, 50% and 70% improvement in this score)."}, "[5]": {"details": "out of 17 RA patients, 3 months of CF101"}}}
{"smiles": "CN(Cc1cnc2nc(N)nc(N)c2n1)c1ccc(C(=O)N[C@@H](CCC(=O)O)C(=O)O)cc1", "note": "[methotrexate, reference compound]", "values": [{"measurement": "A3AR expression profile in lymph nodes (LN)", "setting": "[1]; AIA rats treated with MTX, compared with pattern seen with IB-MECA", "value": "a similar A3AR expression profile was observed"}, {"measurement": "disease severity evaluated by the arthritis clinical score", "setting": "[2]", "value": "significant decrease"}, {"measurement": "level of the A3AR in PBMNCs", "setting": "[3]; 4 RA patients, prior to vs after onset of treatment with methotrexate", "value": "increase"}]}
{"smiles": "CNC(=O)[C@H]1O[C@@H](n2cnc3c(NCc4cccc(I)c4)ncnc32)[C@H](O)[C@@H]1O", "note": "[CF101, N^6-(3-iodobenzyl)-adenosine-5′-N-methyluronamide]", "values": [{"measurement": "A3AR expression level in peripheral hematopoietic tissues (spleen and lymph node)", "setting": "[1]; AIA rats treated with IB-MECA, low in naïve animals, high in AIA", "value": "low expression"}, {"measurement": "A3AR protein expression level in inflammatory tissues (paw & synovial)", "setting": "[1]; AIA rats, upon IB-MECA treatment vs untreated AIA", "value": "down-regulated"}, {"measurement": "disease severity evaluated by the arthritis clinical score", "setting": "[2]", "value": "significant decrease"}, {"measurement": "A3AR level in PBMNC of non-responders", "setting": "[3]; after 3 months CF101 treatment vs baseline", "value": "essentially no change"}, {"measurement": "A3AR level in PBMNC of ACR 50 and ACR 70 responders", "setting": "[3]; after 3 months CF101 treatment vs baseline (initial high level)", "value": "reduced"}, {"measurement": "responders with ACR 20 only response", "setting": "[4]; [5]", "value": 4, "unit": "patients"}, {"measurement": "responders with ACR 50 response", "setting": "[4]; [5]", "value": 5, "unit": "patients"}, {"measurement": "responders with ACR 70 response", "setting": "[4]; [5]", "value": 3, "unit": "patients"}, {"measurement": "non-responders (not even an ACR 20 response)", "setting": "[4]; out of 17 RA patients, 3 months of CF101 0.1, 1.0 or 4.0 mg twice daily", "value": 5, "unit": "patients"}, {"measurement": "other parameters, particularly number of swollen and tender joints, in patient no. 1517", "setting": "[4]; single RA patient with no ACR response (CRP change below 0%), 3 months of CF101", "value": "very significant improvement"}]}
